According to patent US20230286995A1, “METABOLICALLY STABLE PYRIMIDINYL DIHYDROQUINOXALINONES AS TUBULIN POLYMERIZATION INHIBITORS” (UNIVERSITY OF TENNESSEE RESEARCH FOUNDATION, priority 2022, published 2023):
Where two headings read alike, the source gives them in different places.

Assays:
[1] = tested on: MDA-MB-231; test: Cytotoxicity assay (MTS, 72 h); format: cell-based; settings: Homo sapiens
[2] = tested on: A375; test: Cytotoxicity assay (MTS, 72 h); settings: Homo sapiens;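 note: compounds tested from 0.1 nM up to 3 µM in four replicate wells, with absorbance read at 490 nm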
[3] = tested on: Mia PaCa-2; test: Cytotoxicity assay (MTS, 72 h); format: cell-based; settings: Homo sapiens, Table 6, read-out: IC50 (nM) Pancreatic cancer Mia PaCa-2
[4] = tested on: M14; test: Cytotoxicity assay (MTS, 72 h); settings: Homo sapiens
[5] = tested on: PC3/TxR; test: Cytotoxicity assay (MTS, 72 h); format: cell-based; settings: Homo sapiens, Table 6, paclitaxel-resistant, read-out: IC50 (nM) Prostate cancer PC3/TxR
Method: Biology. Cell culture and Reagents. […] MIA Paca-2 pancreatic cancer cells were cultured in media also supplemented with 2.5% horse serum. PANC-1 and PC-3 were cultured in RPMI 1640 medium (Gibco, Carlsbad, Calif.) supplemented with 10% FBS and 1% antibiotic/antimycotic mixture. […] For biological experiments, pyrimidine dihydroquinoxalinone derivatives were dissolved in DMSO to create 20 mM stock solutions and stored at −20° C. until use.
(§1) Cytotoxicity Assay. […] Each experiment consisted of four replicates.

[6] = tested on: MDA-MB-453; test: Cytotoxicity assay (MTS, 72 h); format: cell-based, human; settings: Homo sapiens, MDA-MB-453
[7] = tested on: PANC-1; test: Cytotoxicity assay (MTS, 72 h); format: cell-based; settings: Homo sapiens, Table 6, read-out: IC50 (nM) Pancreatic cancer PANC-1
Method: Mia PaCa-2 and PANC-1 cells were seeded in 96-well plates at 4000 and 5000 cells per well, respectively.
as §1

[8] = tested on: PC3; test: Cytotoxicity assay (MTS, 72 h); format: cell-based; settings: Homo sapiens, PC-3; Table 6; read-out: IC50 (nM) Prostate cancer PC3
Source text: as §1

[9] = tested on: human melanoma and breast cancer cell lines; test: Cytotoxicity, all tested cell lines of Table 1; format: cell-based; settings: Homo sapiens, melanoma and breast lines of Table 1; read-out: IC50 values, range over all tested cell lines
[10] = tested on: RPMI-7951; test: Cytotoxicity assay (MTS, 72 h); format: cell-based; settings: Homo sapiens, Table 1, read-out: IC50 (nM) Melanoma RPMI-7951
[11] = tested on: MDA-MB-468; test: Cytotoxicity assay (MTS, 72 h); format: cell-based, human; settings: Homo sapiens, MDA-MB-468; Table 1; read-out: IC50 (nM) Breast MDA-MB-468
[12] = logP; format: physicochemical; settings: Table 1; method not described
[13] = MDA-MB-231, read-out: IC50 (nM) Breast Cancer MDA-MB-231, Table 6
[14] = A-375, read-out: IC50 (nM) Melanoma Cancer A375, Table 6
[15] = M14, read-out: IC50 (nM) Melanoma Cancer M14
[16] = Table 6, read-out: IC50 (nM) Breast Cancer MDA-MB-453
[17] = MDA-MB-231, read-out: IC50 (nM) Breast MDA-MB-231, Table 1
[18] = A-375, read-out: IC50 (nM) Melanoma A375, Table 1
[19] = M14, read-out: IC50 (nM) Melanoma M14
[20] = Table 1, read-out: IC50 (nM) Breast MDA-MB-453

| SMILES | IC50 [1, 13] [nM] | IC50 [2, 14] [nM] | IC50 [3] [nM] | IC50 [4, 15] [nM] | IC50 [5] [nM] | IC50 [6, 16] [nM] | IC50 [7] [nM] | IC50 [8] [nM] | IC50 [1, 17] [nM] | IC50 [2, 18] [nM] | IC50 [4, 19] [nM] | IC50 [6, 20] [nM] | IC50 [9] [nM] | IC50 [10] [nM] | IC50 [11] [nM] | logP [12] |
| --- | --- | --- | --- | --- | --- | --- | --- | --- | --- | --- | --- | --- | --- | --- | --- | --- |
| COc1ccc2c(c1)NC(=O)CN2c1nc(-n2ccnc2)nc2c1CCC2 [Compound 12h, 4-(2-(1H-imidazol-1-yl)-6,7-dihydro-5H-cyclopenta[d]pyrimidin-4-yl)-7-methoxy-3,4-dihydroquinoxalin-2(1H)-one] | 8.4 ± 1.5 | ~5.7 | 15.5 ± 2.5 | 5.8 ± 1.2 | 4.7 ± 0.7 | 4.5 ± 1.2 | 11.5 ± 2.3 | 8.2 ± 1.4 | – | – | – | – | – | – | – | – |
| COc1ccc2c(c1)NC(=O)CN2c1nc(OC)nc2c1CCC2 [Compound 12b, 7-methoxy-4-(2-methoxy-6,7-dihydro-5H-cyclopenta[d]pyrimidin-4-yl)-3,4-dihydroquinoxalin-2(1H)-one] | 7.5 ± 1.5 | ~3.2 | 9 ± 1.3 | 5.3 ± 1.1 | 4.7 ± 0.7 | 3.4 ± 0.8 | 9.4 ± 1.5 | 7.2 ± 1.2 | – | – | – | – | – | – | – | – |
| COc1ccc2c(c1)NC(=O)CN2c1nc(N)nc2c1CCC2 [Compound 12c, 4-(2-amino-6,7-dihydro-5H-cyclopenta[d]pyrimidin-4-yl)-7-methoxy-3,4-dihydroquinoxalin-2(1H)-one] | 2.3 ± 0.5 | ~2.01 | 5 ± 0.7 | 1.7 ± 0.3 | 2.3 ± 0.3 | 1.4 ± 0.4 | 5.5 ± 1 | 3.8 ± 0.6 | – | – | – | – | – | – | – | – |
| COc1ccc2c(c1)NC(=O)CN2c1nc(Cl)nc2c1CCC2 [Compound 5l, 4-(2-chloro-6,7-dihydro-5H-cyclopenta[d]pyrimidin-4-yl)-7-methoxy-3,4-dihydroquinoxalin-2(1H)-one] | – | – | – | – | – | – | – | – | 25.7 ± 6.2 | 5.5 ± 0.7 | 5.9 ± 1.5 | 3.7 ± 1.2 | 0.4 to 26 | 6.8 ± 2.5 | 5.6 ± 2.2 | 2.74 |
| COc1ccc2c(c1)NC(=O)CN2c1nc(SC)nc2c1CCC2 [Compound 10, 7-methoxy-4-(2-(methylthio)-6,7-dihydro-5H-cyclopenta[d]pyrimidin-4-yl)-3,4-dihydroquinoxalin-2(1H)-one] | 4.3 ± 0.7 | 3.4 ± 0.5 | 3.9 ± 0.6 | 3.2 ± 0.5 | 1.6 ± 0.2 | 1.4 ± 0.6 | 3.4 ± 0.6 | 2.4 ± 0.4 | – | – | – | – | – | – | – | – |
| COc1ccc2c(c1)NC(=O)CN2c1nc(N2CCOCC2)nc2c1CCC2 [Compound 12e, 7-methoxy-4-(2-morpholino-6,7-dihydro-5H-cyclopenta[d]pyrimidin-4-yl)-3,4-dihydroquinoxalin-2(1H)-one] | 25.8 ± 4.6 | ~13.6 | 44.4 ± 7.1 | 18.3 ± 3.7 | 14.4 ± 2.2 | 17.6 ± 4 | 56.2 ± 9 | 23.9 ± 3.6 | – | – | – | – | – | – | – | – |
| COc1ccc2c(c1)NC(=O)CN2c1nc(N=C=S)nc2c1CCC2 [Compound 12l, 4-(2-isothiocyanato-6,7-dihydro-5H-cyclopenta[d]pyrimidin-4-yl)-7-methoxy-3,4-dihydroquinoxalin-2(1H)-one] | 4.9 ± 0.8 | ~3.3 | 7.3 ± 1.2 | 2.6 ± 0.4 | 4.8 ± 0.7 | 2.9 ± 0.6 | 10.7 ± 2.3 | 6.3 ± 0.8 | – | – | – | – | – | – | – | – |
| COc1ccc2c(c1)NC(=O)CN2c1nc(NCCO)nc2c1CCC2 [Compound 12m, 4-(2-((2-hydroxyethyl)amino)-6,7-dihydro-5H-cyclopenta[d]pyrimidin-4-yl)-7-methoxy-3,4-dihydroquinoxalin-2(1H)-one] | 8.6 ± 1.2 | ~8.6 | 23.6 ± 3.5 | 7 ± 1 | 15 ± 1.6 | 6.4 ± 1.6 | 43.1 ± 8.2 | 14.8 ± 1.8 | – | – | – | – | – | – | – | – |
| COc1ccc2c(c1)NC(=O)CN2c1nc(C)nc2onc(C)c12 [Compound 5k, 4-(3,6-dimethylisoxazolo[5,4-d]pyrimidin-4-yl)-7-methoxy-3,4-dihydroquinoxalin-2(1H)-one] | – | – | – | – | – | – | – | – | 9.3 ± 1.6 | 14.3 ± 4.1 | 6.7 ± 2.2 | 4.6 ± 1.1 | – | 7 ± 2.3 | 7.5 ± 1.6 | 2.46 |
